Reference: publication PMC7026418, “The kinase polypharmacology landscape of clinical PARP inhibitors” (Scientific Reports, 2020)
Where two headings read alike, the source gives them in different places. Values belong to the compound of their own block, whether it stands above or below them.

Columns and labels:
Test in all cases: biochemical
Parameters in all cases: DiscoveRx KINOMEscan active site-directed competition binding; percent of control kinase bound to immobilised ligand
[1] = molecular target: CAMK2D (Homo sapiens, UniProt Q13557)
Sequence of CAMK2D (Q13557 whole entry): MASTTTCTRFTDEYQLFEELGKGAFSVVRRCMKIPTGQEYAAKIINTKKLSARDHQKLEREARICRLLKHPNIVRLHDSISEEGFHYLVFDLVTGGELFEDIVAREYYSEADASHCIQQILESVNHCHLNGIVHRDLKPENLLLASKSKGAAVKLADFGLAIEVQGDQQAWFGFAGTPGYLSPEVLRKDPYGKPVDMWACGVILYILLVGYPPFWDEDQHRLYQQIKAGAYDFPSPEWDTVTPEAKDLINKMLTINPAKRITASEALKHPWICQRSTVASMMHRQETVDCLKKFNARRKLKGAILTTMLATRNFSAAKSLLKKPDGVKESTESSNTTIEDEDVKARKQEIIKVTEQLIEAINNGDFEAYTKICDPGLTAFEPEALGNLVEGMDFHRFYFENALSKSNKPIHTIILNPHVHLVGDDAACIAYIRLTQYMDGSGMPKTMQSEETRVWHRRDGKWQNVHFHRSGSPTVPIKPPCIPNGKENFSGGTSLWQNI

[2] = molecular target: CSNK2A1 (Homo sapiens, UniProt P68400)
Sequence of CSNK2A1 (P68400 whole entry): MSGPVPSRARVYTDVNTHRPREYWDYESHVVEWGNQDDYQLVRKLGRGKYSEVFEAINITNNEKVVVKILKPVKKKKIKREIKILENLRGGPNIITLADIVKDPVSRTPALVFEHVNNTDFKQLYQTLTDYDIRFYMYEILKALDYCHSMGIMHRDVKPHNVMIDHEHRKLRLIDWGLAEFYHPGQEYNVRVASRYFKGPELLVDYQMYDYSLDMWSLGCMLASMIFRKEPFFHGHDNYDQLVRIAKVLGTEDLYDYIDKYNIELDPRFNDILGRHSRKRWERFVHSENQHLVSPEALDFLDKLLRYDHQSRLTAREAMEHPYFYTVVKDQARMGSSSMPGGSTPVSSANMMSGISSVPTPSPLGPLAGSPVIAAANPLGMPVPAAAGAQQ

[3] = molecular target: EPHA2 (Homo sapiens, UniProt P29317)
Sequence of EPHA2 (P29317 whole entry): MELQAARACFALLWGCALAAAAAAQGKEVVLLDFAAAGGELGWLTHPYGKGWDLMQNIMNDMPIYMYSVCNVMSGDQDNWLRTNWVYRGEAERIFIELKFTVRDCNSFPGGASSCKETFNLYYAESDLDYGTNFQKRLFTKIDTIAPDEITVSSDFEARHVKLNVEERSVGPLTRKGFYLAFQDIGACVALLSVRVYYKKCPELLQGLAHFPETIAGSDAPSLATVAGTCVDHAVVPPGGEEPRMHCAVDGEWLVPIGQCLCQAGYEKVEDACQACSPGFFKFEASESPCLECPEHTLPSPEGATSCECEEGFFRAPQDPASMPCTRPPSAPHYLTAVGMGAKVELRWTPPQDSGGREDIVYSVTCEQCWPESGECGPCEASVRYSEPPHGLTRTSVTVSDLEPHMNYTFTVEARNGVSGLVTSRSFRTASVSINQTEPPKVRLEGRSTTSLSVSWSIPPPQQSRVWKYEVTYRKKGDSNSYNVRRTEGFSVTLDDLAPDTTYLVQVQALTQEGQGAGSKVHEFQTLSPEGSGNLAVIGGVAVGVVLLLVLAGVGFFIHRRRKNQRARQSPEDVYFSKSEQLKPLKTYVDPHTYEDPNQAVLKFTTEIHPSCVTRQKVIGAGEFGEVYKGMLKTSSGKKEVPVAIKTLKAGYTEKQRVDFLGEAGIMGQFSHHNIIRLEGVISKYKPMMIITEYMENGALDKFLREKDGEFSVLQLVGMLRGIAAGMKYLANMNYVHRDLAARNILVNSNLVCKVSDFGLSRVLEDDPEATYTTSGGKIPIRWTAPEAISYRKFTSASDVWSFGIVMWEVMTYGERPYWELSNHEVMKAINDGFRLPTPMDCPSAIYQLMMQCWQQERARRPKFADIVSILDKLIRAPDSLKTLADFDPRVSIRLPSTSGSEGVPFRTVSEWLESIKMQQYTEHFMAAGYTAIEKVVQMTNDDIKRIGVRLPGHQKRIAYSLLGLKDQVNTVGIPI

[4] = molecular target: T1, EPHB2 (Homo sapiens, UniProt P29323)
T1 sequence (P29323 1-1055): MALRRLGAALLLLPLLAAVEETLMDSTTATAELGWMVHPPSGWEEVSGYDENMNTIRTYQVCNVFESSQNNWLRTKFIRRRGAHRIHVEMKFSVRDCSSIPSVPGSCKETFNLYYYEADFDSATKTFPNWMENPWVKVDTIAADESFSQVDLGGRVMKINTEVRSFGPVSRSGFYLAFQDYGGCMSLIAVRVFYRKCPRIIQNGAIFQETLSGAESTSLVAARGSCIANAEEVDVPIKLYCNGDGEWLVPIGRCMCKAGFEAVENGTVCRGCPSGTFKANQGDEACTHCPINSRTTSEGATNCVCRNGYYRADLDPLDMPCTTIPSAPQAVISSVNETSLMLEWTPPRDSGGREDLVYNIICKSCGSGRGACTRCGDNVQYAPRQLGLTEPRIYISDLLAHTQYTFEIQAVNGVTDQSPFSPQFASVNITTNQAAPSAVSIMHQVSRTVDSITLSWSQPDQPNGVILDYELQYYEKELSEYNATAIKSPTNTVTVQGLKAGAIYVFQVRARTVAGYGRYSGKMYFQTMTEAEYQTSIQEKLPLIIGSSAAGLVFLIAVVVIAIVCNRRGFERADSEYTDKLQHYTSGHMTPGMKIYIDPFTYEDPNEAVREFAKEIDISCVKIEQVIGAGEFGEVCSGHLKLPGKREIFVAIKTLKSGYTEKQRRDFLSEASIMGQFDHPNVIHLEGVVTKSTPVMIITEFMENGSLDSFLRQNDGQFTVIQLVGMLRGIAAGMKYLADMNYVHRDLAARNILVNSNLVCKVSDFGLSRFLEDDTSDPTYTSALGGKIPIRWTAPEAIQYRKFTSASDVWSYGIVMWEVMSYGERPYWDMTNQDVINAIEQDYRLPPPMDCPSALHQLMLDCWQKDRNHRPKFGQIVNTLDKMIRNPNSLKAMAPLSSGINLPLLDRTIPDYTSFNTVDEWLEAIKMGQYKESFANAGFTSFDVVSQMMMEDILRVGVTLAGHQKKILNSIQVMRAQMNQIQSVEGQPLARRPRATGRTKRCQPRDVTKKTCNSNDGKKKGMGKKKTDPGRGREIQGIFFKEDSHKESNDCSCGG

[5] = molecular target: FGFR1 (Homo sapiens, UniProt P11362)
Sequence of FGFR1 (P11362 whole entry): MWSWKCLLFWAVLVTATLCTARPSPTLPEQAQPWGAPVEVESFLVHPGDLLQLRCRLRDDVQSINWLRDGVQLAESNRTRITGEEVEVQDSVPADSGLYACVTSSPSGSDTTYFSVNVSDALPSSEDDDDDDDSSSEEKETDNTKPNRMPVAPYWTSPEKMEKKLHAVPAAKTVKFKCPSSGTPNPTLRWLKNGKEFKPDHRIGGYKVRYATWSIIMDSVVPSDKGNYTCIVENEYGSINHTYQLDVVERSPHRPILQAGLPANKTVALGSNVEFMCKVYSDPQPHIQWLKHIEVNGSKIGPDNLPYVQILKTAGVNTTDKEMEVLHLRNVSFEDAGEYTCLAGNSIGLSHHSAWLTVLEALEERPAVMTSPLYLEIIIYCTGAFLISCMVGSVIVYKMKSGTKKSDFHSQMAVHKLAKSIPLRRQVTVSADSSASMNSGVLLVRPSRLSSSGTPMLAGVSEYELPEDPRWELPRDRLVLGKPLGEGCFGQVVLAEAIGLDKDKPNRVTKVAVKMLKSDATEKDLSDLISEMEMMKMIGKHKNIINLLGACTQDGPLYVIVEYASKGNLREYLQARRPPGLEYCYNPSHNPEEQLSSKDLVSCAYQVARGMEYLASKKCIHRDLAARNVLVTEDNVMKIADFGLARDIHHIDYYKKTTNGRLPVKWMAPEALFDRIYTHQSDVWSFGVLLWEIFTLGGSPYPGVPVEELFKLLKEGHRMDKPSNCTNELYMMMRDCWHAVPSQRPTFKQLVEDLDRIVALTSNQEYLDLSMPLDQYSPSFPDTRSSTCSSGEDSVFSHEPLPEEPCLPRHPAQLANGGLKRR

[6] = molecular target: T2, MEK6 (Homo sapiens, UniProt P52564)
T2 construct: gene MAP2K6
T2 sequence (P52564 1-334): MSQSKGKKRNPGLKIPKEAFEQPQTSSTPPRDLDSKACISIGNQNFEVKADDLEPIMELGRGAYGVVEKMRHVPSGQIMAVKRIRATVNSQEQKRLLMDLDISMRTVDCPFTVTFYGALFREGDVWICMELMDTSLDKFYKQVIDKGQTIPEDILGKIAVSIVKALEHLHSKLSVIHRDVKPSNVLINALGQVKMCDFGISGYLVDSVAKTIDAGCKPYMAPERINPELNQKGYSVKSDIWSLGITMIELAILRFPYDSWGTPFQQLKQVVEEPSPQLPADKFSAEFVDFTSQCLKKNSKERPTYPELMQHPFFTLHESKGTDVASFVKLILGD

[7] = molecular target: T3, TYRO3 (Homo sapiens, UniProt Q06418)
T3 sequence (Q06418 1-890): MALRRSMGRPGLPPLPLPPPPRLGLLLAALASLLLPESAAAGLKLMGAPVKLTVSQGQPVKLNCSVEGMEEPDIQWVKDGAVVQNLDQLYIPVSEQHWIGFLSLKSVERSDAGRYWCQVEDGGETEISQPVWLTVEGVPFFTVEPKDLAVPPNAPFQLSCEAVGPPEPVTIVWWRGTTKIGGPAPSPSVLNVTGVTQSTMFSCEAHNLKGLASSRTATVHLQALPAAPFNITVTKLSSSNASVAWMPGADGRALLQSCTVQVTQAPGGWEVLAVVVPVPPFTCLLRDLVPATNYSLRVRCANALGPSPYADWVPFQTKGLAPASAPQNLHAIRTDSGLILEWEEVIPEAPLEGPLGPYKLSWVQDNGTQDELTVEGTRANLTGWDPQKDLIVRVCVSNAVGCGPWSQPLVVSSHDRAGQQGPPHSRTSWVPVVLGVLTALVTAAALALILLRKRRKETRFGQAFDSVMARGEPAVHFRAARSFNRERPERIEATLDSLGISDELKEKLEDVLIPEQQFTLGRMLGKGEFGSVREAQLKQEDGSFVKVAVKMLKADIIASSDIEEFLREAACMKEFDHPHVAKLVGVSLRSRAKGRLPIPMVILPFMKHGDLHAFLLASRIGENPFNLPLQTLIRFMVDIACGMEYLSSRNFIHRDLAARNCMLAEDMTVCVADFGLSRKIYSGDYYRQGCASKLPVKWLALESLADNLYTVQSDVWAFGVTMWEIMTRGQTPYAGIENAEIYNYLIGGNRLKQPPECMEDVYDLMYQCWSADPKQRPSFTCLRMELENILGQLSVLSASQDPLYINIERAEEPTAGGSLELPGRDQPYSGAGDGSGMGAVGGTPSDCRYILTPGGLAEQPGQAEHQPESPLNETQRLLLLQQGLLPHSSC

[8] = read-out: Olaparib / %Ctrl @ 10000nM
[9] = read-out: Talazoparib (BMN 673) / %Ctrl @ 10000nM
[10] = read-out: Rucaparib / %Ctrl @ 10000nM, binding competition, % of control
[11] = read-out: Niraparib (MK-4827) / %Ctrl @ 10000nM

- percent of control binding at 10 µM [1, 8]: 99%
- percent of control binding at 10 µM [2, 8]: 88%
- percent of control binding at 10 µM [3, 8]: 97%
- percent of control binding at 10 µM [4, 8]: 95%
- percent of control binding at 10 µM [5, 8]: 100%
- percent of control binding at 10 µM [6, 8]: 86%
- percent of control binding at 10 µM [7, 8]: 100%
SMILES: O=C(c1cc(Cc2n[nH]c(=O)c3ccccc23)ccc1F)N1CCN(C(=O)C2CC2)CC1 [Olaparib]

- percent of control binding at 10 µM [1, 9]: 99%
- percent of control binding at 10 µM [2, 9]: 98%
- percent of control binding at 10 µM [3, 9]: 100%
- percent of control binding at 10 µM [4, 9]: 89%
- percent of control binding at 10 µM [5, 9]: 94%
- percent of control binding at 10 µM [6, 9]: 83%
- percent of control binding at 10 µM [7, 9]: 100%
SMILES: Cn1ncnc1[C@H]1c2n[nH]c(=O)c3cc(F)cc(c23)N[C@@H]1c1ccc(F)cc1 [Talazoparib]

- percent of control binding at 10 µM [1, 10]: 89%
- percent of control binding at 10 µM [2, 10]: 2.2%
- percent of control binding at 10 µM [3, 10]: 100%
- percent of control binding at 10 µM [4, 10]: 91%
- percent of control binding at 10 µM [5, 10]: 91%
- percent of control binding at 10 µM [6, 10]: 81%
- percent of control binding at 10 µM [7, 10]: 100%
SMILES: CNCc1ccc(-c2[nH]c3cc(F)cc4c3c2CCNC4=O)cc1 [Rucaparib]

SMILES: NC(=O)c1cccc2cn(-c3ccc([C@@H]4CCCNC4)cc3)nc12 [Niraparib]
- percent of control binding at 10 µM [1, 11]: 99%
- percent of control binding at 10 µM [2, 11]: 6.8%
- percent of control binding at 10 µM [3, 11]: 94%
- percent of control binding at 10 µM [4, 11]: 75%
- percent of control binding at 10 µM [5, 11]: 88%
- percent of control binding at 10 µM [6, 11]: 95%
- percent of control binding at 10 µM [7, 11]: 89%
